Measured values reported in patent US20120184765A1, “Process for preparing alkyl phosphates” (LANXESS DEUTSCHLAND GMBH, priority 2011, published 2012).

Assay: Solubility of tetraalkyl bisphosphates in water (separating funnel test)
Format: physicochemical
Settings: for water solubility (phase separation observed): 50.0 g tetraalkyl bisphosphate + 50.0 g fully demineralized water, shaken, left to stand 1 hour, residue of aqueous phase / weight of aqueous phase; for solubility / miscibility in water (in words): conclusion from the phase separation experiments; for phase separation in further experiments: different weight ratios of tetraalkyl bisphosphate and water
Procedure: A separating funnel was charged with 50.0 g of tetraalkyl bisphosphate and 50.0 g of fully demineralized water, and was shaken vigorously and then left to stand for 1 hour. If phase separation became apparent, the lower, aqueous phase was carefully separated off and weighed (mw). The aqueous phase was concentrated to constant weight under reduced pressure on a rotary evaporator, and the residue was likewise weighed (mR).

| water solubility (phase separation observed) | solubility / miscibility in water (in words) | phase separation in further experiments | Molecule |
| --- | --- | --- | --- |
| no phase separation | fully water-soluble | no phase separation | CCOP(=O)(OCC)OCCOCCOP(=O)(OCC)OCC [Tetraethyldiethylene glycol bisphosphate, tetraethyldiethylene glycol bisphosphate] |
| no phase separation | fully water-soluble | no phase separation | tetramethyldiethylene glycol bisphosphate |
